In publication PMC9775652, “Concomitant Administration of Red Ginseng Extract with Lactic Acid Bacteria Increases the Plasma Concentration of Deglycosylated Ginsenosides in Healthy Human Subjects” (Biomolecules, 2022):
Several values for one entry are separate records, joined by “and”; a condition that tells them apart may be missing. Equal values may be shown once. Read-outs that look alike come from different tables or passages of the source.

What was measured:
[1] = system: LAB; test: In vitro RGE fermentation with LAB; assay type: in vitro ADME; settings: RGE incubated with LAB (1 billion CFU) for 7 days at 37 °C; result in words
[2] = Pharmacokinetic study of ginsenosides in healthy humans after repeated oral RGE with or without LAB; assay type: in vivo, human; settings: for Cmax / MRT / Tmax / AUC: male, in vivo, human plasma, mean ± SD, n = 5; for Cmax: read-out: Cmax; for MRT: read-out: MRT; for Tmax: read-out: Tmax; for AUC: AUC 0 to 24 h, read-out: AUC
[3] = Transport (permeability) of ginsenosides in CaCo-2 cell monolayers; assay type: in vitro ADME; settings: human, Caco-2, CaCo-2 cell monolayers, 50 µM; B to A Papp divided by A to B Papp; read-out: Efflux ratio (ER)
[4] = cited from earlier work
[5] = 104.1 mg total ginsenosides/day, RGE group, RGE oral 14 days

CC(C)=CCC[C@](C)(O)[C@H]1CC[C@]2(C)[C@@H]1[C@H](O)C[C@@H]1[C@@]3(C)CC[C@H](O[C@@H]4O[C@H](CO)[C@@H](O)[C@H](O)[C@H]4O)C(C)(C)[C@@H]3CC[C@]12C [GRh2, ginsenoside Rh2]
Relative abundance / metabolic activity following fermentation of RGE with LAB [1]: significantly increased
Fold increase of plasma AUC after LAB supplementation ([2]; RGE + LAB group compared to RGE group, humans, 2 weeks): 2.1 fold and 2.7 fold
Change of AUC / pharmacokinetic parameters by RGE and LAB co-administration ([2]; RGE + LAB group versus RGE group, humans, result in words): significantly increased
Cmax [2, 5]: 2.1 ± 0.8 ng/mL
MRT [2, 5]: 17 ± 9.3 h
Tmax [2, 5]: 10.7 ± 0.6 h
AUC ([2]; RGE + LAB group, RGE plus LAB (1 billion CFU/2 g) once daily oral 14 days): 57.1 ± 22 ng·h/mL
Cmax ([2]; RGE + LAB group, oral 14 days): 13.9 ± 12.8 ng/mL
MRT ([2]; RGE + LAB group, oral 14 days): 10.2 ± 1.6 h
Tmax ([2]; RGE + LAB group, oral 14 days): 10.6 ± 1.8 h
AUC ([2]; RGE group, RGE once daily oral 14 days (104.1 mg total ginsenosides/day)): 21.3 ± 10.1 ng·h/mL
efflux ratio at 50 µM [3]: 2.3
Oral BA [4]: 5%
